Experimental data: patent US20230331690A1, “THC DERIVATIVES, ORAL DOSAGE FORMS COMPRISING SAME, USES THEREOF FOR TREATING DISEASES AND DISORDERS AND SYNTHESIS THEREOF” (BAR-ILAN UNIVERSITY, priority 2020, published 2023)
Values joined by “and” are separate entries in the source; they are usually repeats but may differ in a detail not shown here. Equal entries are not always repeated. Where two headings read alike, the source gives them in different places.

Experiments:
[1] = Persistence over time, liver samples postmortem (Example 18); assay type: in vivo, mice; settings: for concentration at 6 h / concentration at 24 h: mouse, liver, oral, read-out: Average results for 3 mice (Table 13, liver); for concentration at 6 h: died at 6 h
Description: (§1) Blood samples from each mouse were collected at each time point for the pharmacokinetics tests. For 6 h after administrating of all tested drugs, and after testing their WRL on the hot plate, half the mice (n=3) of each group were sacrificed, and the liver and brain of each animal were taken for pharmacokinetics tests. From the remaining mice, blood samples were acquired at 12 h after administration for pharmacokinetics tests. At 24 h after drug administration, and after checking the WRL again, second half of each group of mice were sacrificed, and the liver and brain of each animal were taken for pharmacokinetics tests.
(§2) All the results of the brain and liver samples, which were taken postmortem 6 h or 24 h after administration (n=3) are summarized in Tables 12-13.

mice = assay: Hot plate assay, withdrawal reflex latency (WRL); assay type: in vivo; settings: for Hot plate Time: per animal
[2] = Pharmacokinetics, blood samples (Example 17); settings: mouse, blood, ip, Component in the blood, label = analyte
Description: The pharmacokinetics of 9-CD3-(8-D2)-THC compared to natural THC was evaluated using both intraperitoneal i.p. injection and an oral gavage administration for each material. The mice were divided into four groups containing 6 mice (24 mice total). For each group of mice, a blood sample was withdrawn at baseline (t=0), and half-hour intervals (t=0.5, 2 and 5 h) after administration of the drug. Three mice, half of each group, were euthanized with CO2 after 5 h and their organs (brain and liver) were collected. From the second half of each group, another blood sample was withdrawn 24 h after administration, and then these animals were euthanized and the brain and liver were collected for analysis.

[3] = Pharmacokinetics, liver samples (Example 17); assay type: in vivo, mice; settings: mouse, liver; for concentration at 24 h: ip; for concentration at 5 h: po
[4] = Body temperature by rectal thermometer (hypothermia)
[5] = Persistence over time, brain samples postmortem (Example 18); assay type: in vivo, mice
Description: as §1, §2

[6] = Persistence over time, blood samples (Example 18); assay type: in vivo, mice; settings: label = analyte; for Average results, blood samples: 4 mg/kg administration
Description: as §1

## CCCCCc1cc(O)c2c(c1)OC(C)(C)[C@@H]1CCC(C)=C[C@@H]21 [THC, Δ-9-tetrahydrocannabinol]
[1]; 2 mg/kg administered, died at 24 h, number in brackets = mice with a value
  Average results for 3 mice (Table 13, liver): 0.74 (2/3) ng/g
[1]; 2 mg/kg administered
  concentration at 6 h: 9.18 ng/g
[1]; 4 mg/kg administered
  concentration at 6 h: 11.4 ng/g
[1]; 4 mg/kg administered, died at 24 h, number in brackets = mice with a value
  concentration at 24 h: 0.87 ng/g
[1]; 8 mg/kg administered
  concentration at 6 h: 11.1 ng/g
[1]; 8 mg/kg administered, died at 24 h, number in brackets = mice with a value
  concentration at 24 h: 3.52 ng/g
mice; 2 mg/Kg oral, t = 0.5 h
  Hot plate Avg. 6 mice: 7.38 s
  Hot plate Time: 5.7 s and 11.5 s and 8.9 s and 9.2 s and 3.2 s and 5.8 s
mice; 2 mg/Kg oral, t = 3 h
  Hot plate Avg. 6 mice: 9.77 s
  Hot plate Time: 9.5 s and 8.5 s and 18.0 s and 10.4 s and 5.3 s and 6.9 s
mice; 2 mg/Kg oral, t = 6 h
  Hot plate Avg. 6 mice: 9.77 s
  Hot plate Time: 13.5 s and 6.3 s and 12.5 s and 8.7 s and 6.6 s and 11.0 s
mice; 2 mg/Kg oral, t = 24 h
  Hot plate Avg. 3 mice: 6.53 s
  Hot plate Time: 7.8 s and 7.4 s and 4.4 s
mice; 2 mg/kg, 0.5 h
  decrease in the WRL compared to baseline: 1%
mice; 2 mg/kg, 3 h
  change in average WRL compared to baseline: +31%
mice; 2 mg/kg, 6 h
  change in average WRL compared to baseline: +31%
mice; 4 mg/Kg oral, t = 0.5 h
  Hot plate Avg. 6 mice: 12.48 s
  Hot plate Time: 11.3 sec. (2×) and 19.8 sec. and 6.3 sec. and 14.0 sec. and 12.2 sec.
mice; 4 mg/Kg oral, t = 3 h
  Hot plate Avg. 6 mice: 11.00 s
  Hot plate Time: 17.3 s and 8.0 s and 9.3 s and 6.9 s and 13.9 s and 10.6 s
mice; 4 mg/Kg oral, t = 6 h
  Hot plate Avg. 6 mice: 8.92 s
  Hot plate Time: 12.1 sec. and 2.4 sec. and 3.0 sec. and 14.0 sec. (2×) and 8.0 sec.
mice; 4 mg/Kg oral, t = 24 h
  Hot plate Avg. 3 mice: 10.43 s
  Hot plate Time: 13.7 s and 12.8 s and 4.8 s
mice; 4 mg/kg, 0.5 h
  increase in the WRL compared to baseline: 23%
mice; 4 mg/kg, 3 h
  change in average WRL compared to baseline: +8%
mice; 4 mg/kg, 6 h
  change in average WRL compared to baseline: −12%
mice; 8 mg/Kg oral, t = 0.5 h
  Hot plate Avg. 6 mice: 13.22 s
mice; 8 mg/Kg oral, t = 0.5 h, cut-off 30 s
  Hot plate Time: 15.2 s and 11.1 s and 14.2 s and 6.7 s and 19.6 s and 12.5 s
mice; 8 mg/Kg oral, t = 3 h
  Hot plate Avg. 6 mice: 12.45 s
mice; 8 mg/Kg oral, t = 3 h, cut-off 30 s
  Hot plate Time: 21.6 s and 9.0 s and 9.8 s and 9.5 s and 12.5 s and 12.3 s
mice; 8 mg/Kg oral, t = 6 h
  Hot plate Avg. 6 mice: 12.03 s
  Hot plate Time: 13.2 s and 9.2 s and 6.8 s and 16.7 s and 17.0 s and 9.3 s
mice; 8 mg/Kg oral, t = 24 h
  Hot plate Avg. 3 mice: 10.27 s
mice; 8 mg/Kg oral, t = 24 h, cut-off 30 s
  Hot plate Time: 8.1 s and 15.7 s and 7.0 s
mice; 8 mg/kg, 0.5 h
  average increase in WRL compared to baseline (t=0): 67.3%
mice; 8 mg/kg, 3 h
  change in average WRL compared to t=0 at baseline: +57.5%
mice; 8 mg/kg, 6 h
  change in average WRL compared to baseline: +52%
[2]; Average, 0.5 h after i.p. injection of THC or THC-d5, n=6 (THC-d5 n=5)
  concentration at 0.5 h: 63.4 ng/mL
[2]; mouse 1, 0.5 h after i.p. injection of THC or THC-d5
  concentration at 0.5 h: 76.8 ng/mL
[2]; mouse 2, 0.5 h after i.p. injection of THC or THC-d5
  concentration at 0.5 h: 81.9 ng/mL
[2]; mouse 3, 0.5 h after i.p. injection of THC or THC-d5
  concentration at 0.5 h: 49.5 ng/mL
[2]; mouse 4, 0.5 h after i.p. injection of THC or THC-d5
  concentration at 0.5 h: 64.4 ng/mL
[2]; mouse 5, 0.5 h after i.p. injection of THC or THC-d5
  concentration at 0.5 h: 53.8 ng/mL
[2]; mouse 6, 0.5 h after i.p. injection of THC or THC-d5
  concentration at 0.5 h: 53.9 ng/mL
[3]; 24 h after i.p. administration, n=3, read-out: average liver concentration
  concentration at 24 h: 7.62 ng/g
[3]; 24 h after i.p. injection of THC or THC-d5, label = analyte, n=3, read-out: Component in the liver, Average
  concentration at 24 h: 7.62 ng/mL
[3]; 24 h after i.p. injection of THC or THC-d5, label = analyte, read-out: Component in the liver, mouse 1
  concentration at 24 h: 5.55 ng/mL
[3]; 24 h after i.p. injection of THC or THC-d5, label = analyte, read-out: Component in the liver, mouse 2
  concentration at 24 h: 8.46 ng/mL
[3]; 24 h after i.p. injection of THC or THC-d5, label = analyte, read-out: Component in the liver, mouse 3
  concentration at 24 h: 8.86 ng/mL
[3]; 5 h after oral gavage administration of THC or THC-d5, label = analyte, n=3, read-out: Component in the liver, Average
  concentration at 5 h: 3.77 ng/mL
[3]; 5 h after oral gavage administration of THC or THC-d5, label = analyte, read-out: Component in the liver, mouse 1
  concentration at 5 h: 1.41 ng/mL
[3]; 5 h after oral gavage administration of THC or THC-d5, label = analyte, read-out: Component in the liver, mouse 2
  concentration at 5 h: 4.94 ng/mL
[3]; 5 h after oral gavage administration of THC or THC-d5, label = analyte, read-out: Component in the liver, mouse 3
  concentration at 5 h: 4.97 ng/mL
[3]; 5 h after oral gavage administration, n=3, read-out: average liver concentration
  concentration at 5 h: 3.77 ng/g
[4]; high concentration of 8 mg/kg oral
  time of strongest effect on body temperature after drug administration: 0.5 h
[4]; medium concentration of 4 mg/kg oral
  hypothermia effect (body temperature): very clear hypothermia effect
[4]; mice, avg. of 6 mice, 8 mg/kg (groups C+D), t = 0.5 h after administration
  Body temperature, Avg. change compared to t = 0, at t = 0.5 h: −2.1 °C
[5]; 24 h after administration, highest concentration of 8 mg/kg
  presence in the brain: absent
[5]; mouse, brain, oral, 4 mg/kg administered, died at 24 h, number in brackets = mice with a value, read-out: Average results for 3 mice - brain samples
  concentration at 24 h: 14.1 ng/g
[5]; mouse, brain, oral, 8 mg/kg administered, died at 6 h, number in brackets = mice with a value, read-out: Average results for 3 mice - brain samples
  concentration at 6 h: 16.9 ng/g
[6]; Time 3 h
  Average results, blood samples: 2.78 (4/6) ng/mL
[6]; Time 6 h
  Average results, blood samples: 2.44 (5/5) ng/mL
[6]; Time 24 h (3 mice)
  Average results, blood samples: 0.25 (2/2) ng/mL
[6]; mouse, blood, oral, 4 mg/kg administration of THC or THC-d5, Time 0.5 h
  concentration at 0.5 h: 10.5 ng/mL
[6]; mouse, blood, oral, 8 mg/kg administration of THC or THC-d5, Time 0.5 h
  concentration at 0.5 h: 14.3 ng/mL
[6]; mouse, blood, oral, 8 mg/kg administration, Time 3 h
  concentration at 3 h: 6.53 ng/mL
[6]; mouse, blood, oral, 8 mg/kg administration, Time 6 h
  concentration at 6 h: 4.14 ng/mL
[6]; mouse, blood, oral, 8 mg/kg administration, Time 12 h (3 mice)
  concentration at 12 h: 0.81 ng/mL
[6]; mouse, blood, oral, 8 mg/kg administration, Time 24 h (3 mice)
  concentration at 24 h: 0.26 ng/mL
